Columns and labels:
[1] = tested on: kainic acid (KA) triggered epileptogenesis in mice; experiment: EEG seizure recording six weeks after intrahippocampal kainic acid-triggered epileptogenesis, transient ITU treatment; format: in vivo, mouse
Description: (§1) Kainic acid (KA) was administered intrahippocampally (IH) at day 0 to produce status epilepticus. […] At six weeks and nine weeks, the subjects were analyzed by EEG alone or EEG and histology, respectively.
The number of subjects from which data were collected is indicated in parentheses above each condition.

[2] = tested on: DNA methyltransferase (DNMT); conditions: mice, one hour after administration
Text: FIGS. 3 and 4 show a pair of bar graphs reporting the level of DNMT activity measured one hour after administration to mice of vehicle alone or with the indicated inhibitor.

[3] = tested on: kainic acid (KA) triggered epileptogenesis in mice; experiment: Histological analysis of hippocampal tissue sections at nine weeks after KA status epilepticus; format: in vivo, mouse
Description: as §1
Administration of saline only is a control (top row of images). […] The tissue sections shown in the first column of images were Nissl stained, and those in the second, third, and fourth columns were stained respectively with antibodies to glial fibrillary acidic protein (GFAP), ADK, and 5-methylcytosine (5mC).
FIGS. 12-14 are a series of graphs plotting data from the histological analysis represented by FIG. 11. […] FIG. 13 plots the level of GFAP, and FIG. 14 the level of ADK.

[4] = 1.6 mg/kg ip twice daily, day 3 to day 8 after KA, EEG at six weeks
[5] = hippocampal sections, nine weeks after KA, transient ITU ip

## Nc1ncnc2c1c(I)cn2[C@@H]1O[C@H](CO)[C@@H](O)[C@H]1O [ITU, 5-iodotubercidin]
[1]; [4]
  seizure frequency: dramatically reduced
  time spent in seizure: dramatically reduced
[1]; 3.1 mg/kg ip once daily, day 3 to day 8 after KA, EEG at six weeks
  frequency of seizures and time spent in seizures: substantially ineffective
[1]; ITU twice daily, EEG at six weeks, repeat of FIGS. 6 and 7
  frequency of seizures and time spent in seizures, partial repeat experiment: confirm the long-term, anti-epileptogenic effect
[1]; mice, inferred from once-daily versus twice-daily efficacy
  half-life: much less than one day
[2]; ITU 3.1 mg/kg
  inhibition of DNMT compared with AZA: as effective as AZA
[2]
  DNMT inhibition compared with ADOX and IODO: most effective
[3]; Nissl stained sections, nine weeks, compared to controls
  dentate granule layer dispersion produced by KA: significantly less
[3]; [5]
  level of 5-methylcytosine: reduced
  level of ADK: reduced
[3]; nine weeks after KA, transient ITU ip
  epilepsy-associated histopathology (Nissl): prevented later development of epilepsy-associated histopathology
